Measured values taken from US7939064B2 (priority 2006, dated 2011).

Tested on: transient cerebral focal ischemia (left middle cerebral artery occlusion)
Details: rat, in vivo

C[C@]12N[C@H](Cc3ccccc31)c1ccccc12 [MK801, dizocilpine, reference compound]
infarct volume relative to saline-treated control: 61.1%±8.6% | reduction of focal ischemia / infarct size (summary statement): 40%
